What was measured:
ERK1/2 = ERK1/2 activation by western blotting; assay type: cell-based, mouse; settings: 100 μM H2O2 or TNF-α 0.1 μg/ml
TRPV1 = TRPV1 (Homo sapiens, UniProt Q8NER1); experiment: Ca2+ imaging (Fluo-4AM) in HEKVR1 cells; assay type: cell-based
Excerpt: (§1) NE has been linked to immediate increase in ROS generation and persistent oxidative stress in the cochlea2, leading to generation of reactive oxygen species such as: hydroxyl […] (OH^−), superoxide anion (O^2—) and hydrogen peroxide (H2O2).

UB/OC-1 cells [1] = experiment: Ca2+ imaging (Fluo-4AM) in UB/OC-1 cells; assay type: cell-based, mouse
Excerpt: as §1

UB/OC-1 cells [2] = experiment: Western blot of STAT1, STAT3 and JAK2 phosphorylation; assay type: cell-based, mouse
outer hair cells (OHCs) = experiment: Outer hair cell damage by SEM and whole mount hair cell count; assay type: in vivo, rat; settings: basal turn, cisplatin
Excerpt: Immediately after completion of post-treatment ABRs, rats were euthanized and their cochleae were harvested and the specimens processed as described previously by [Kamimura et al.]. Sputter-coated cochlea were viewed and photographed with a Hitachi S-500 scanning electron microscope (Hitachi Ltd.). The resulting scanning electron micrographs were examined to determine qualitative morphological characteristics in various regions including the basal, middle, and apical turns of the rat cochlea.
Two representative areas of the basal turn, middle turn, and apex and hook portion were photographed. In each area, outer hair cells (OHCs) were counted in an area that was 10 pillar cell heads in length. The results are presented as the percentage hair cell damage per cochlear turn. At least three cochleae from different animals per treatment group were used.
To study the organization of the outer hair cells and inner hair cells, the cochlear whole mount technique was used. The cochleae was fixed in fresh 4% paraformaldehyde overnight, and then decalcified in […] EDTA for 2 weeks, (pH 7.3) while stirring at room temperature for 2 weeks. After decalcification, the cochleae was microdissected into basal, middle, and apical turns for whole-mount preparation.
For further processing, segments were washed with 1×PBS twice for 5 mins. For blocking, the segments were incubated in 10% blocking serum (horse serum) for 3 hrs at room temperature. The segments were incubated with primary antibody in 0.2% Triton prepared in PBS and refrigerated overnight. The following day, the segments were washed in PBS (three washes) for 5 mins each wash. The segments were washed in secondary antibody for 2 hrs at room temperature in the dark. The antibodies were then washed with PBS (three washes). Glass coverslips were then mounted on the segments with ProLong Diamond Antifade Mountant (Thermo Fisher Scientific) and incubated them at room temperature overnight and then stored them in 4 degrees. Images were procured using a Leica confocal microscope (Buffalo Grove, IL).
For hair cell count in whole mount preparations, two to three random areas from the basal turn from each treatment group separately were selected. Hair cells were counted in […] segments of the cochlea respectively. Counts were averaged across treatment group. This was further normalized as % of PBS (control) by taking the values of control as 100%.

rat cochlea [3] = experiment: Immunolabelling of mid-modiolar cochlear sections, fluorescent intensity analyses; assay type: in vivo
Experimental: Cochleae were perfused with a 4% paraformaldehyde solution, cochleae were decalcified for 7-10 days in 120 mM EDTA, embedded them in paraffin and then sectioned the specimens [Mukherjea et al., 2010]. Slides were deparaffined, rehydrated and then stained with primary and secondary antibodies. Glass coverslips were mounted on the specimens with ProLong Diamond mounting medium. Images were obtained using a Leica confocal microscope (Buffalo Grove, IL).
Image J software was used to analyze the mean gray area for the various images. These values were then used to quantify the increase or decrease in % fluorescence intensity of the various regions of the samples compared to control.

rat cochlea [4] = experiment: Cochlear gene expression by q-PCR (cisplatin study); assay type: in vivo; settings: 72 h following cisplatin
UMSCC-10b cells = experiment: SCID mouse xenograft model; assay type: in vivo; settings: single agent: cisplatin 2 mg/kg ip or oral capsaicin 0.5 mg/kg
Experimental: SCID mice (from Envigo, 5-6 weeks of age) were injected subcutaneously with 1.5×10^6 mycoplasma-free UMSCC 10B cells in one flank. […] At the time of each treatment, tumor volumes were calculated based on the formula: volume=width2×(length/2) [Jajoo et al.]. Mice were killed 24 h after the eleventh treatment. All procedures were performed in accordance with relevant guidelines and regulations of SIU School of Medicine.

UB/OC1 cells = experiment: Cell death by TUNEL
Experimental: UB/OC1 cells were treated with either scrambled siRNA or TRPV1 siRNA for 24 h.

UB/OC-1 cells [5] = experiment: Cell viability assay (MTS assay); assay type: cell-based
Experimental: The in vitro UB/OC1 cell proliferation was performed by using the CellTiter 96® AQueous One Solution Cell Proliferation Assay Kit (Promega, Madison, WI), according to the manufacturer's instructions. 3,500 cells were seeded per well into a 96-well plate. […] After 48 h, 20 μl of CellTiter 96 AQueous One Solution reagent was added to each well in 100 μl of total volume of media. Cells were incubated for 1 h, and recorded absorbance at 490 nm using an ELISA plate reader. The absorbance is directly proportional to the number of living cells and is expressed as a percent relative to vehicle-treated cells.

Wistar rats = experiment: ABR threshold shifts, cisplatin-induced hearing loss; assay type: in vivo, rat
Experimental: Adult male Wistar rats (200-350 g) (from Envigo) were used for this study. Rats were housed in a temperature controlled room with a twelve hour light/dark cycle. They had free access to commercial food and water provided by the SIU Laboratory Animal Care facility.
Prior to experiments, rats were anesthetized with ketamine HCl/xylazine mixture (24.6/3 mg/kg) and then placed in a sound-attenuation chamber (Industrial Acoustic Company, Inc.). Body temperature of the rats was maintained at 37° C. with an animal blanket system. Pretreatment auditory brainstem responses (ABRs) was performed using an IHS-High-frequency System (Intelligent Hearing Systems, Miami, FL). The rats were exposed to acoustic stimuli via HIS transducers that were directly placed at the entrance of the ear canal. ABR thresholds were obtained for 5 ms duration tone bursts at 8, 16 and 32 kHz at a rate of 50/s. Thresholds were determined by visually produced lowest intensity evoked potentials (EP) that progressed in 10 dB steps. Evoked potentials (Eps) were amplified to 200,000×, and were band pass filtered (100-3000 Hz) and averaged over 1024 sweeps [Mukherjea et al., 2010].
At the end of auditory testing, the anesthetized animals were decapitated and the cochlea harvested. The SIU Laboratory Animal Care and Use Committee approved all animal procedures.
Male Wistar rats were anesthetized using ketamine/xylazine cocktail. The tympanic membrane was punctured as described in [Mukherjea et al., 2010].

[6] = TNF-α 0.1 μg/ml 60 seconds prior to 100 μM H2O2, till 5 minutes
[7] = BCTC 100 nM 45 min then capsaicin 2.5 μM
[8] = capsaicin 2.5 μM 30 min and/or cisplatin 2.5 μM 45 min (FIG. 5.E)

Sequence of TRPV1 (Q8NER1 whole entry, species assumed): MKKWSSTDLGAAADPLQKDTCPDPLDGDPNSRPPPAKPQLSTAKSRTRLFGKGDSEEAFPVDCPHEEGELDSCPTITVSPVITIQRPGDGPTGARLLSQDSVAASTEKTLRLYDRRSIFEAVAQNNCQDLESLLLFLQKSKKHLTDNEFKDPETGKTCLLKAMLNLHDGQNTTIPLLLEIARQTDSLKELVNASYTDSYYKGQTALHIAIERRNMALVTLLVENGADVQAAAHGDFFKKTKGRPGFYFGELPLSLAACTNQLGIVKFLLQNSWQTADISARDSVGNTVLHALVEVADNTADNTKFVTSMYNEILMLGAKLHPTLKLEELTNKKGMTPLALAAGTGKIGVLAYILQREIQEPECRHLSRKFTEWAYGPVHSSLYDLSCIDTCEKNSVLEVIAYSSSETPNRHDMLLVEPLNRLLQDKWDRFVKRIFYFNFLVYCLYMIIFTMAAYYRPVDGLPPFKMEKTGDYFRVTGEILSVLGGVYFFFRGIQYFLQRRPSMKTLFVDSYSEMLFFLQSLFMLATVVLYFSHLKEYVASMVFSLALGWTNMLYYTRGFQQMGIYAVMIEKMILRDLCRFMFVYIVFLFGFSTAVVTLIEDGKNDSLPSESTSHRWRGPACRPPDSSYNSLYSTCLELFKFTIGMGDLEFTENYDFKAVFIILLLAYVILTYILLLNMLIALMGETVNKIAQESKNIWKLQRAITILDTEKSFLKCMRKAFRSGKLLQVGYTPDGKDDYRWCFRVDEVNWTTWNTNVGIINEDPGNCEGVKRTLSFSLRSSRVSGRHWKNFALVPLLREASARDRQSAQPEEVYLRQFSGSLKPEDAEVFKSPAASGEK

With TNF-α the “time of highest ERK activation post treatment” value (ERK1/2) was 30 min, the H2O2-induced calcium release (TRPV1; [6]) was “prolonged sustained calcium release” and the H2O2-induced calcium release (UB/OC-1 cells [1]; [6]) was “prolonged sustained calcium release”.
With CC(C)(C)c1ccc(NC(=O)N2CCN(c3ncccc3Cl)CC2)cc1 [BCTC, N-(4-tertiarybutylphenyl)-4-(3-chloropyridin-2-yl) tetrahydropyrazine-1(2H)-carbox-amide] the “TRPV1 mediated STAT1-Ser^727 phosphorylation” value (UB/OC-1 cells [2]; [7]) was “decreases” and the “Tyr STAT3 phosphorylation” value (UB/OC-1 cells [2]; [7]) was “without significantly altering”.
With N.N.[Cl][Pt][Cl] [cisplatin] the “loss or damage of outer hair cells compared to vehicle controls” value (outer hair cells (OHCs); SEM) was “ten-fold”, the “outer hair cell death” value (outer hair cells (OHCs); whole mount, myosin VIIa) was 43±4% and the “Tyr p-STAT3” value (UB/OC-1 cells [2]; 2.5 μM, at 120 minutes) was “sustained inhibition”. For the same compound, the JAK2 phosphorylation (UB/OC-1 cells [2]; 2.5 μM, time course) was “persistent and significant reductions”, the “Ser^727 p-STAT1” value (UB/OC-1 cells [2]; 2.5 μM, up to 120 min) was “persistent increase” and the p-STAT1 (UB/OC-1 cells [2]; [8]) was 120±2%. For the same compound, the p-STAT3 (UB/OC-1 cells [2]; [8]) was 106.5±2.5%, the “CB2 labelling in the OHCs, SGs and SVA” value (rat cochlea [3]; single agent) was “did not significantly change” and the “TRPV1, NOX3 and iNOS labelling in the OHCs, SG and SVA” value (rat cochlea [3]; single agent vs control) was “significantly increased”. The “increases in TRPV1, NOX3 and INOS expression” value (rat cochlea [4]) was 2-3 fold and the “tumor growth (volume, size, weight)” value (UMSCC-10b cells) was “significantly reduced”.
With COc1cccc(-c2cc(=O)c3ccccc3o2)c1N [PD98059] the H2O2-induced calcium release (TRPV1; 10 μM PD98059 pre-treatment) was “little or no calcium release”, the “cell death/apoptosis by 100 μM H2O2” value (UB/OC1 cells) was “significantly decreased cell death” and the H2O2-induced calcium release (UB/OC-1 cells [1]; 10 μM PD98059 pre-treatment) was “little or no calcium release”.
With Cc1c(C(=O)NN2CCOCC2)nn(-c2ccc(Cl)cc2Cl)c1-c1ccc(I)cc1 [AM281] the “capsaicin-induced Ser^727 p-STAT1” value (UB/OC-1 cells [2]) was “had no effect” and the “capsaicin-induced Tyr p-STAT3” value (UB/OC-1 cells [2]) was “did not alter”.
With COc1ccc(C(=O)c2c(C)n(CCN3CCOCC3)c3cc(I)ccc23)cc1 [AM630] the “capsaicin-induced Ser^727 p-STAT1” value (UB/OC-1 cells [2]) was “significantly decreased”, the “capsaicin-induced Tyr p-STAT3” value (UB/OC-1 cells [2]) was “significantly decreased” and the “JWH015 increase of p-STAT3” value (UB/OC-1 cells [2]; AM630 10 μM 30 min before JWH015) was “reversed”. The “cell viability compared to capsaicin” value (UB/OC-1 cells [5]; AM630 30 minutes prior to capsaicin for 24 h) was “significantly decreased cell viability”, the ABR thresholds (Wistar rats; AM630 trans-tympanic alone or in combination with capsaicin) was “significant increases in ABR thresholds” and the “effect on capsaicin protection against cisplatin-induced hearing loss” value (Wistar rats; AM630 trans-tympanic before oral capsaicin 20 mg/kg and cisplatin) was “reversed the protective effect of oral capsaicin”.
With O=[N+]([O-])c1ccc2c(c1)S(=O)(=O)C=C2 [STATTIC] the “Tyr^705 p-STAT3 levels” value (UB/OC-1 cells [2]; STATTIC 100 nM) was “significantly reduced”, the cell death (UB/OC-1 cells [5]; STATTIC 100 nM alone) was “did not induce cell death” and the “protective action of capsaicin against cisplatin-induced cell killing” value (UB/OC-1 cells [5]; STATTIC 100 nM pre-treatment) was “abrogated the protective action of capsaicin”.
For OO [H2O2, hydrogen peroxide], the “time of highest ERK activation post treatment” value (ERK1/2) was 60 min.
In the case of CCCn1c(C)c(C(=O)c2cccc3ccccc23)c2ccccc21 [JWH015], the p-STAT3 (UB/OC-1 cells [2]; JWH015 10 μM 30 min) is reported as “increased p-STAT3”.
